Structures are written as SMILES. The source made the active and inactive calls. The rule behind the calls is not given here. Where only a bound is given, the exact number is not on record here.

In one assay the target is T1, Dihydrofolate reductase (Mycobacterium tuberculosis, UniProt P9WNX1).
T1 sequence (P9WNX1 whole entry): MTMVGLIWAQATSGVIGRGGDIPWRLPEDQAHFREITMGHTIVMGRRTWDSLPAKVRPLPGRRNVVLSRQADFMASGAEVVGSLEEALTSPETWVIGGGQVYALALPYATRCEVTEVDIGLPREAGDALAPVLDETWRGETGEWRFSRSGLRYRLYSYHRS
In words: Inhibition of recombinant Mycobacterium tuberculosis DHFR expressed in Escherichia coli BL21(DE3) cells using DHF as substrate and NADPH as cofactor by fluorimetric analysis.

Assay [1] addresses T2, Dihydrofolate reductase (Mycobacterium tuberculosis) (UniProt P9WNX1).
T2 sequence (whole entry): T1 sequence (P9WNX1 whole entry)
Briefly: Potency index, ratio of MB872 IC50 to test compound IC50 for recombinant Mycobacterium tuberculosis DHFR expressed in Escherichia coli BL21(DE3) cells using DHF as substrate and NADPH as cofactor by fluorimetric analysis.

Assay [2] concerns the target T2, Dihydrofolate reductase (Mycobacterium tuberculosis). In words: Potency index, ratio of trimethoprim IC50 to test compound IC50 for recombinant Mycobacterium tuberculosis DHFR expressed in Escherichia coli BL21(DE3) cells using DHF as substrate and NADPH as cofactor by fluorimetric analysis.
The target is the same in assay [3]. In words: Uncompetitive inhibition of Mycobacterium tuberculosis DHFR assessed as constant Km using DHF as substrate and NADPH as cofactor by Michaelis-Menten analysis.
Assay [4] shares this target. In words: Uncompetitive inhibition of Mycobacterium tuberculosis DHFR assessed as varying Vmax using DHF as substrate and NADPH as cofactor by Michaelis-Menten analysis.

Regarding `COC(=O)c1cccc(CSc2ccccc2)c1`, at Dihydrofolate reductase, the IC50 came to 76 µM.
Still for that read-out and setting: to `COC(=O)c1cccc(-n2cc(COc3ccccc3)nn2)c1` belongs 81 µM.
Take `COc1ccc(OCc2ccc(C(=O)O)cc2)cc1`: the Ratio IC50 in assay [1] is 19. Besides, the half-maximal inhibitory concentration (IC50) at Dihydrofolate reductase was 31 µM.
`COC(=O)c1cccc(OCc2ccccc2)c1`: the half-inhibitory concentration (IC50) on Dihydrofolate reductase is greater than 500 µM.
Take `COC(=O)c1ccc(COc2ccc(OC)cc2)cc1`: in assay [1], the Ratio IC50 was determined as 16. Also, at Dihydrofolate reductase, the concentration for half-maximal inhibition (IC50) amounted to 26 µM.
Take `O=C(O)c1cccc(CSc2ccccc2)c1`: on Dihydrofolate reductase, the IC50 amounted to 128 µM.
`O=C(O)c1cccc(COc2ccccc2)c1`: the half-inhibitory concentration (IC50) at Dihydrofolate reductase is no less than 500 µM.
Consider `O=C(O)c1cccc(COc2ccc(O)cc2)c1`, for which the Ratio IC50 in assay [1] lay within 13 to 21. Moreover, the concentration for half-maximal inhibition (IC50) on Dihydrofolate reductase was 36 µM.
As for `COC(=O)c1ccc(COc2ccccc2)cc1`, on Dihydrofolate reductase, the IC50 was 152 µM.
As to `COc1ccc(OCc2cccc(C(=O)O)c2)cc1`, on Dihydrofolate reductase, the IC50 was found to be 119 µM.
`O=C(O)c1ccc(COc2ccccc2)cc1`: at Dihydrofolate reductase, the IC50 amounted to 442 µM.
Take `O=C(O)c1cccc(-n2cc(COc3ccccc3)nn2)c1`: on Dihydrofolate reductase, the concentration for half-maximal inhibition (IC50) was greater than 500 µM.
Still for that read-out and setting: next, `COC(=O)c1cccc(COc2ccccc2)c1`: greater than 500 µM; `O=C(O)c1cccc(OCc2ccccc2)c1`: 230 µM.
Turning to `O=C(O)c1cccc(CNc2ccccc2)c1`, the figures for the Ratio IC50 in assay [2] and in assay [1] were 13 and 71, respectively. Further, the inhibition entry in assay [3] and in assay [4] was “Active” throughout. Also, at Dihydrofolate reductase, the IC50 was 7 µM.
Regarding `c1ccc(OCc2cccc(-c3nnn[nH]3)c2)cc1`, on Dihydrofolate reductase, the IC50 is 454 µM.
With `O=C(O)c1cccc(COc2ccc([N+](=O)[O-])cc2)c1`, in assay [1], the Ratio IC50 lay within 13 to 21. Besides, the concentration for half-maximal inhibition (IC50) on Dihydrofolate reductase is 23 µM.
As to `COC(=O)c1cccc(COc2ccc(OC)cc2)c1`, at Dihydrofolate reductase, the IC50 was 242 µM.
For `COC(=O)c1cccc(COc2ccc([N+](=O)[O-])cc2)c1`, in assay [1], the Ratio IC50 lay in the range of 13 to 21. On Dihydrofolate reductase, the concentration for half-maximal inhibition (IC50) stood at 35 µM.

Source of the values: ChEMBL document CHEMBL4622960, “Design, synthesis and biological activity of novel substituted 3-benzoic acid derivatives as MtDHFR inhibitors” (Bioorg Med Chem, 2020).
